Test results as given in ChEMBL document CHEMBL4837183, “Antiproliferative Bufadienolides from the Bulbs of Drimia altissima” (2021).

What was measured:
Format in all cases: functional
KM12 = experiment: Growth inhibition of human KM12 cells measured after 48 hrs by SRB assay
SK-OV-3 = experiment: Growth inhibition of human SK-OV-3 cells measured after 48 hrs by SRB assay
UACC-257 = experiment: Growth inhibition of human UACC-257 cells measured after 48 hrs by SRB assay
MDA-MB-435 = experiment: Growth inhibition of human MDA-MB-435 cells measured after 48 hrs by SRB assay
IGROV-1 = experiment: Growth inhibition of human IGROV-1 cells measured after 48 hrs by SRB assay
SF-539 = experiment: Growth inhibition of human SF-539 cells measured after 48 hrs by SRB assay
MDA-MB-231 = experiment: Growth inhibition of human MDA-MB-231 cells measured after 48 hrs by SRB assay
UO-31 = experiment: Growth inhibition of human UO-31 cells measured after 48 hrs by SRB assay
HOP-62 = experiment: Growth inhibition of human HOP-62 cells measured after 48 hrs by SRB assay
K562 = experiment: Growth inhibition of human K562 cells measured after 48 hrs by SRB assay
TK-10 = experiment: Growth inhibition of human TK-10 cells measured after 48 hrs by SRB assay
NCI-H322M = experiment: Growth inhibition of human NCI-H322M cells measured after 48 hrs by SRB assay
HL-60 = experiment: Growth inhibition of human HL-60 cells measured after 48 hrs by SRB assay
786-0 = experiment: Growth inhibition of human 786-0 cells measured after 48 hrs by SRB assay
UACC-62 = experiment: Growth inhibition of human UACC-62 cells measured after 48 hrs by SRB assay
HOP-92 = experiment: Growth inhibition of human HOP-92 cells measured after 48 hrs by SRB assay
PC-3 = experiment: Growth inhibition of human PC-3 cells measured after 48 hrs by SRB assay
CAKI-1 = experiment: Growth inhibition of human CAKI-1 cells measured after 48 hrs by SRB assay
DU-145 = experiment: Growth inhibition of human DU-145 cells measured after 48 hrs by SRB assay
SK-MEL-2 = experiment: Growth inhibition of human SK-MEL-2 cells measured after 48 hrs by SRB assay
M14 = experiment: Growth inhibition of human M14 cells measured after 48 hrs by SRB assay
MDA-MB-468 = experiment: Growth inhibition of human MDA-MB-468 cells measured after 48 hrs by SRB assay
MCF7 = experiment: Growth inhibition of human MCF7 cells measured after 48 hrs by SRB assay
HCT-15 = experiment: Growth inhibition of human HCT-15 cells measured after 48 hrs by SRB assay
OVCAR-3 = experiment: Growth inhibition of human OVCAR-3 cells measured after 48 hrs by SRB assay
SNB-75 = experiment: Growth inhibition of human SNB-75 cells measured after 48 hrs by SRB assay
NCI-H460 = experiment: Growth inhibition of human NCI-H460 cells measured after 48 hrs by SRB assay
SR = experiment: Growth inhibition of human SR cells measured after 48 hrs by SRB assay
T47D = experiment: Growth inhibition of human T47D cells measured after 48 hrs by SRB assay
SF-295 = experiment: Growth inhibition of human SF-295 cells measured after 48 hrs by SRB assay
OVCAR-5 = experiment: Growth inhibition of human OVCAR-5 cells measured after 48 hrs by SRB assay
NCI-H226 = experiment: Growth inhibition of human NCI-H226 cells measured after 48 hrs by SRB assay
Malme-3M = experiment: Growth inhibition of human Malme-3M cells measured after 48 hrs by SRB assay
NCI-H23 = experiment: Growth inhibition of human NCI-H23 cells measured after 48 hrs by SRB assay
HT-29 = experiment: Growth inhibition of human HT-29 cells measured after 48 hrs by SRB assay
BT-549 = experiment: Growth inhibition of human BT-549 cells measured after 48 hrs by SRB assay
CCRF-CEM = experiment: Growth inhibition of human CCRF-CEM cells measured after 48 hrs by SRB assay
HCT-116 = experiment: Growth inhibition of human HCT-116 cells measured after 48 hrs by SRB assay
SK-MEL-5 = experiment: Growth inhibition of human SK-MEL-5 cells measured after 48 hrs by SRB assay
NCI-H522 = experiment: Growth inhibition of human NCI-H522 cells measured after 48 hrs by SRB assay
A549 = experiment: Growth inhibition of human A549 cells measured after 48 hrs by SRB assay
HCC 2998 = experiment: Growth inhibition of human HCC 2998 cells measured after 48 hrs by SRB assay
SW-620 = experiment: Growth inhibition of human SW-620 cells measured after 48 hrs by SRB assay
OVCAR-8 = experiment: Growth inhibition of human OVCAR-8 cells measured after 48 hrs by SRB assay
SNB-19 = experiment: Growth inhibition of human SNB-19 cells measured after 48 hrs by SRB assay
A498 = experiment: Growth inhibition of human A498 cells measured after 48 hrs by SRB assay
Hs-578T = experiment: Growth inhibition of human Hs-578T cells measured after 48 hrs by SRB assay
COLO 205 = experiment: Growth inhibition of human COLO 205 cells measured after 48 hrs by SRB assay
ACHN = experiment: Growth inhibition of human ACHN cells measured after 48 hrs by SRB assay
RXF 393 = experiment: Growth inhibition of human RXF 393 cells measured after 48 hrs by SRB assay
U-251 = experiment: Growth inhibition of human U-251 cells measured after 48 hrs by SRB assay
SN12C = experiment: Growth inhibition of human SN12C cells measured after 48 hrs by SRB assay
NCI/ADR-RES = experiment: Growth inhibition of human NCI/ADR-RES cells measured after 48 hrs by SRB assay
SK-MEL-28 = experiment: Growth inhibition of human SK-MEL-28 cells measured after 48 hrs by SRB assay
SF-268 = experiment: Growth inhibition of human SF-268 cells measured after 48 hrs by SRB assay
MOLT-4 = experiment: Growth inhibition of human MOLT-4 cells measured after 48 hrs by SRB assay
LOX IMVI = experiment: Growth inhibition of human LOX IMVI cells measured after 48 hrs by SRB assay

SMILES: C[C@]12CC[C@H]3[C@@H](CC[C@H]4C[C@@H](O)CC[C@@]43C=O)[C@@]1(O)CC[C@@H]2c1ccc(=O)oc1
- GI50 (KM12): 6.25 µM
- GI50 (SK-OV-3): 5.63 µM
- GI50 (UACC-257): 4.5 µM
- GI50 (MDA-MB-435): 3.5 µM
- GI50 (IGROV-1): 5.06 µM
- GI50 (SF-539): 1.47 µM
- GI50 (MDA-MB-231): 14.1 µM
- GI50 (UO-31): 1.6 µM
- GI50 (HOP-62): 1.1 µM
- GI50 (K562): 4.28 µM
- GI50 (TK-10): 2.58 µM
- GI50 (NCI-H322M): 3.12 µM
- GI50 (HL-60): 3.41 µM
- GI50 (786-0): 1.76 µM
- GI50 (UACC-62): 3.2 µM
- GI50 (HOP-92): 3.22 µM
- GI50 (PC-3): 3.53 µM
- GI50 (CAKI-1): 1.5 µM
- GI50 (DU-145): 1.18 µM
- GI50 (SK-MEL-2): 4.3 µM
- GI50 (M14): 4.14 µM
- GI50 (MDA-MB-468): 8.23 µM
- GI50 (MCF7): 0.99 µM
- GI50 (HCT-15): 2.15 µM
- GI50 (OVCAR-3): 1.71 µM
- GI50 (SNB-75): 3.18 µM
- GI50 (NCI-H460): 0.556 µM
- GI50 (SR): 2.03 µM
- GI50 (T47D): 4.74 µM
- GI50 (SF-295): 1.98 µM
- GI50 (OVCAR-5): 5.21 µM
- GI50 (NCI-H226): 6.87 µM
- GI50 (Malme-3M): 3.47 µM
- GI50 (NCI-H23): 1.71 µM
- GI50 (HT-29): 2.7 µM
- GI50 (BT-549): 1.73 µM
- GI50 (CCRF-CEM): 1.07 µM
- GI50 (HCT-116): 0.633 µM
- GI50 (SK-MEL-5): 2.35 µM
- GI50 (NCI-H522): 0.694 µM
- GI50 (A549): 0.562 µM
- GI50 (HCC 2998): 8.74 µM
- GI50 (SW-620): 1.34 µM
- GI50 (OVCAR-8): 2.83 µM
- GI50 (SNB-19): 6.41 µM
- GI50 (A498): 1.13 µM
- GI50 (Hs-578T): 0.739 µM
- GI50 (COLO 205): 6.52 µM
- GI50 (ACHN): 0.502 µM
- GI50 (RXF 393): 0.418 µM
- GI50 (U-251): 4.47 µM
- GI50 (SN12C): 0.877 µM
- GI50 (NCI/ADR-RES): 1.49 µM
- GI50 (SK-MEL-28): 6.05 µM
- GI50 (SF-268): 1.07 µM
- GI50 (MOLT-4): 0.665 µM
- GI50 (LOX IMVI): 2.37 µM
